Measured values from patent US20170349532A1, “CATIONIC LIPID” (Kyowa Hakko Kirin Co., Ltd., priority 2011, published 2017).

Assay: Average particle diameter of preparation (Zetasizer Nano ZS)
Type: physicochemical
Details: Comparative Examples 1 to 8, prepared as Example 118 with apo-b siRNA
How it was run: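 Lipid nanoparticles formed by mixing cationic lipid/PEG-DMPE Na/DSPC/cholesterol (8.947/1.059/5.708/13.697 mmol/L in 90% ethanol, 37 °C) with apo-b siRNA in Tris-EDTA/citrate buffer pH 5.0, then diluted with citrate/NaCl pH 6.0 and DPBS to 10 μM siRNA. Mean complex diameter measured by dynamic light scattering.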

Point of comparison: `CCCCC/C=C\C/C=C\CCCCCCCC(=O)OCCN(C)CCOC(=O)CCCCCCC/C=C\C/C=C\CCCCC` [Compound A-5, N-Methyl-N,N-bis(2-((9Z,12Z)-1-oxooctadec-9,12-dienyloxy)ethyl)amine, reference compound], “average particle diameter of the complex between the cationic lipis and the nucleic acid in the preparation” value 136.4 nm. Against it:
- CCCCCCCC/C=C\CCCCCCCC(=O)OCC(C[N+](C)(C)C)OC(=O)CCCCCCC/C=C\CCCCCCCC.[Cl-] (centres unmarked) [Compound A-1, N(2,3-di-(9-(Z)-octadecenoyloxy))-prop-1-yl-N,N,N-trimethylammonium chloride, reference compound] — lower, 104.0 nm
- CCCCC/C=C\C/C=C\CCCCCCCC(=O)O[C@@H]1CN(C)C[C@H]1OC(=O)CCCCCCC/C=C\C/C=C\CCCCC [Compound A-3, (3R,4R)-1-Methylpyrrolidine-3,4-diyl di((9Z,12Z)-octadec-9,12-dienoate), reference compound] — higher, 141.0 nm
- CCCCCCCC/C=C\CCCCCCCC(=O)O[C@@H]1CN(C)C[C@H]1OC(=O)CCCCCCC/C=C\CCCCCCCC [Compound A-4, (3R,4R)-1-Methylpyrrolidine-3,4-diyl di((Z)-octadec-9-enoate), reference compound] — lower, 131.1 nm

Same assay, conditions: average particle diameter of cationic lipid/nucleic acid complex; Example 118 preparation: compound/PEG-DMPE Na/DSPC/cholesterol with apo-b siRNA

Point of comparison: `CCCCCCCC/C=C\CCCCCCCCOCCN(CCOCCCCCCCC/C=C\CCCCCCCC)C(=O)CN(C)C` [Compound 89, 2-(Dimethylamino)-N,N-bis(2-((Z)-octadec-9-enyloxy)ethyl)acetamide], “Particle diameter of Preparetion” value 121.5 nm. Against it:
- CCCCCCCC/C=C\CCCCCCCC(=O)OCCNCCOC(=O)CCCCCCC/C=C\CCCCCCCC [Compound 73, N,N-bis(2-((Z)-Octadec-9-enoyloxy)ethyl)amine] — higher, 146.8 nm
- CCCCC/C=C\C/C=C\CCCCCCCC(=O)OCCNCCOC(=O)CCCCCCC/C=C\C/C=C\CCCCC [Compound 74, N,N-bis(2-((9Z,12Z)-Octadec-9,12-dienoyloxy)ethyl)amine] — higher, 128.4 nm
- CCCC/C=C\CCCCCCCCOCCN(C)CCOCCCCCCCC/C=C\CCCC [Compound 75, N-Methyl-N,N-bis(2-((Z)-Tetradec-9-enyloxy)ethyl)amine] — higher, 124.0 nm
- CCCCCCCCCCCCCCCCOCCN(C)CCOCCCCCCCCCCCCCCCC [Compound 76, N,N-bis(2-(Hexadecyloxy)ethyl)-N-methylamine] — higher, 133.6 nm
- CCCCCC/C=C\CCCCCCCCCCOCCN(C)CCOCCCCCCCCCC/C=C\CCCCCC [Compound 77, N-Methyl-N,N-bis(2-((Z)-octadec-11-enyloxy)ethyl)amine] — lower, 119.7 nm
- CCCCCCCC/C=C\CCCCCCCCCCOCCN(C)CCOCCCCCCCCCC/C=C\CCCCCCCC [Compound 78, N,N-bis(2-((Z)-Icos-11-enyloxy)ethyl)-N-methylamine] — higher, 131.4 nm
- CCCCC/C=C\C/C=C\CCCCCCCCCCOCCN(C)CCOCCCCCCCCCC/C=C\C/C=C\CCCCC [Compound 79, N,N-bis(2-((11Z,14Z)-Icos-11,14-dienyloxy)ethyl)-N-methylamine] — lower, 116.5 nm
- CCCCCCCC/C=C\CCCCCCCCOCC[N+](C)(C)CCOCCCCCCCC/C=C\CCCCCCCC.[Cl-] [Compound 80, N,N-diMethyl-N,N-bis(2-((Z)-octadec-9-enyloxy)ethyl)aminium chloride] — lower, 110.3 nm
- CCCCCCCC/C=C\CCCCCCCC(=O)OCC[N+](C)(C)CCOC(=O)CCCCCCC/C=C\CCCCCCCC.[Cl-] [Compound 81, N,N-diMethyl-N,N-bis(2-((Z)-octadec-9-enoyloxy)ethyl)aminium chloride] — lower, 103.4 nm
- CCCCCCCC/C=C\CCCCCCCCOCCN(CCOCCCCCCCC/C=C\CCCCCCCC)CC(O)CO (centres unmarked) [Compound 82, 3-(bis(2-((Z)-Octadec-9-enyloxy)ethyl)amino)propan-1,2-diol] — higher, 125.7 nm
- CCCCCCCC/C=C\CCCCCCCC(=O)OCCN(CCOC(=O)CCCCCCC/C=C\CCCCCCCC)CC(O)CO (centres unmarked) [Compound 83, 3-(bis(2-((Z)-Octadec-9-enoyloxy)ethyl)amino)propan-1,2-diol] — higher, 169.1 nm
- CCCCCCCC/C=C\CCCCCCCCOCCN(CCOCCCCCCCC/C=C\CCCCCCCC)CCC(N)=O [Compound 84, 3-(bis(2-((2)-Octadec-9-enyloxy)ethyl)amino)propanamide] — lower, 120.2 nm
- CCCCCCCC/C=C\CCCCCCCCOCCN(CCOCCCCCCCC/C=C\CCCCCCCC)CCC(=O)N(C)C [Compound 85, 3-(bis(2-((2)-Octadec-9-enyloxy)ethyl)amino)-N,N-dimethylpropanamide] — lower, 120.1 nm
- CCCCCCCC/C=C\CCCCCCCCOCCN(CCOCCCCCCCC/C=C\CCCCCCCC)C(=O)CN [Compound 86, 2-Amino-N,N-bis(2-((Z)-octadec-9-enyloxy)ethyl)acetamide] — higher, 128.4 nm
- CCCCCCCC/C=C\CCCCCCCCOCCN(CCOCCCCCCCC/C=C\CCCCCCCC)C(=O)CCN [Compound 87, 3-Amino-N,N-bis(2-((Z)-octadec-9-enyloxy)ethyl)propanamido] — higher, 136.3 nm
- CCCCCCCC/C=C\CCCCCCCCOCCN(CCOCCCCCCCC/C=C\CCCCCCCC)C(=O)CCCCCN [Compound 88, 6-Amino-N,N-bis(2-((Z)-octadec-9-enyloxy)ethyl)] — higher, 131.9 nm
- CCCCCCCC/C=C\CCCCCCCCOCCN(CCOCCCCCCCC/C=C\CCCCCCCC)C(=O)CCN(C)C [Compound 90, 3-(Dimethylamino)-N,N-bis(2-((Z)-octadec-9-enyloxy)ethyl)propanamido] — lower, 120.8 nm
- CCCCCCCC/C=C\CCCCCCCCOCCN(CCOCCCCCCCC/C=C\CCCCCCCC)C(=O)[C@@H](N)CO [Compound 91, (S)-2-Amino-3-hydroxy-N,N-bis(2-((Z)-octadec-9-enyloxy)ethyl)propanamido] — higher, 125.4 nm
- CCCCCCCC/C=C\CCCCCCCCOCCN(CCOCCCCCCCC/C=C\CCCCCCCC)C(=O)[C@@H](N)CN [Compound 92, (S)-2,3-Diamino-N,N-bis(2-((Z)-octadec-9-enyloxy)ethyl)propanamido] — higher, 143.9 nm
- CCCCCCCC/C=C\CCCCCCCCOCCN(CCOCCCCCCCC/C=C\CCCCCCCC)C(=O)[C@@H](N)CCCN [Compound 93, (S)-2,5-Diamino-N,N-bis(2-((Z)-octadec-9-enyloxy)ethyl)pentanamido] — higher, 135.1 nm
- CCCCCCCC/C=C\CCCCCCCCOCCN(CCOCCCCCCCC/C=C\CCCCCCCC)C(=O)[C@@H](N)CCCCN [Compound 94, (S)-2,6-Diamino-N,N-bis(2-((Z)-octadec-9-enyloxy)ethyl)hexanamido] — higher, 137.3 nm
- CCCCCCCC/C=C\CCCCCCCC(=O)OCCN(CCOC(=O)CCCCCCC/C=C\CCCCCCCC)C(=O)CN [Compound 95, 2-Amino-N,N-bis(2-((Z)-octadec-9-enoyloxy)ethyl)acetamide] — higher, 128.3 nm
- CCCCC/C=C\C/C=C\CCCCCCCC(=O)OCCN(CCOC(=O)CCCCCCC/C=C\C/C=C\CCCCC)C(=O)CN [Compound 96, 2-Amino-N,N-bis(2-((9Z,12Z)-octadec-9,12-dienoyloxy)ethyl)acetamide] — higher, 133.2 nm
- CCCCCCCC/C=C\CCCCCCCC(=O)OCCN(CCOC(=O)CCCCCCC/C=C\CCCCCCCC)C(=O)[C@@H](N)CCCCN [Compound 97, (S)-2,6-Diamino-N,N-bis(2-((Z)-octadec-9-enoyloxy)ethyl)hexanamido] — higher, 133.0 nm
- CCCCCCCC/C=C\CCCCCCCC(=O)OCCN(CCOC(=O)CCCCCCC/C=C\CCCCCCCC)C(=O)CN(C)C [Compound 98, 2-(Dimethylamino)-N,N-bis(2-((Z)-octadec-9-enoyloxy)ethyl)acetamide] — higher, 124.1 nm
- CCCCCCCC/C=C\CCCCCCCC(=O)OCCN(CCOC(=O)CCCCCCC/C=C\CCCCCCCC)C(=O)CCN(C)C [Compound 99, 3-(Dimethylamino)-N,N-bis(2-((Z)-octadec-9-enoyloxy)ethyl)propanamido] — higher, 129.6 nm
- CCCCC/C=C\C/C=C\CCCCCCCC(=O)OCCN(CCOC(=O)CCCCCCC/C=C\C/C=C\CCCCC)C(=O)[C@@H](N)CCCCN [Compound 100, (S)-2,6-Diamino-N,N-bis(2-((9Z,12Z)-octadec-9,12-dienoyloxy)ethyl)hexanamido] — higher, 135.1 nm
- CCCCC/C=C\C/C=C\CCCCCCCCCCOC[C@@H]1CN(C(=O)[C@@H](N)CCCCN)C[C@H]1COCCCCCCCCCC/C=C\C/C=C\CCCCC [Compound 115, trans-1-((S)-2,6-Diaminohexanoyl)-3,4-bis(((11Z,14Z)-icos-11,14-dienyloxy)methyl)pyrrolidine] — higher, 152.8 nm
- CCCCCCCC/C=C\CCCCCCCC(=O)OCCN(CCOC(=O)CCCCCCC/C=C\CCCCCCCC)C(=O)OCCCN(C)C [Compound 116, 3-(Dimethylamino)propyl bis(2-((Z)-1-oxooctadec-9-enyloxy)ethyl)carbamate] — higher, 154.1 nm
- CCCCC/C=C\C/C=C\CCCCCCCC(=O)OCCN(CCOC(=O)CCCCCCC/C=C\C/C=C\CCCCC)C(=O)OCCCN(C)C [Compound 117, 3-(Dimethylamino)propyl bis(2-((9Z,12Z)-1-oxooctadec-9,12-dienyloxy)ethyl)carbamate] — higher, 155.9 nm
